Measured values as given in patent publication US20230293519A1, “INTEGRIN INHIBITORS AND USES THEREOF IN COMBINATION WITH OTHER AGENTS” (Pliant Therapeutics, Inc., priority 2021, published 2023).

Legend:
[1] = system: bleomycin-treated mice (C57BL/6); assay: Murine bleomycin model: collagen deposition; assay type: in vivo, mouse
Method: Mice (C57BL/6) were divided into healthy (n=15), vehicle-treated (n=15), and test article-treated (n=15 per dose) groups. Mice in the vehicle and test article-treated groups were administered 3 U/kg of bleomycin (Teva Pharmaceuticals; North Wales, PA) via oropharyngeal aspiration while under anesthesia on day 0. Healthy animals were administered water in a similar fashion. Starting on day 7, mice in the control group were administered PBS vehicle, 130 uL, by oral gavage, BID for 14 days. Also starting on day 7, mice in the test group were administered compound 5 in PBS by oral gavage, BID for 14 days, at relative dosages of 1x, 2.5x and 5x. […] From day 14 through day 21, 9 of the 15 mice were administered ^2H2O for labeling. All mice were sacrificed on day 21 and tissues were collected. Samples were prepared for analysis either directly from lung tissue, or by bronchoalveolar lavage, which washes out the bronchiolar and alveolar space with saline to produce a bronchoalveolar lavage fluid (BALF) in which 80-90% of cells are alveolar macrophages.
FIG. 4C is a graph showing that compared to the healthy mice, lung tissue in the vehicle-treated mice experienced a substantial increase in SMAD3 phosphorylation, which is a measure of TGF-β signaling-related kinase activity. […] FIG. 4D is a graph showing that compared to the healthy mice, lung tissue in the vehicle-treated mice experienced a substantial accumulation of new collagen as evidenced by the percentage of lung collagen containing ^2H-labeled hydroxyproline.
FIGS. 4F, 4G, and 4H show high resolution second harmonic generation images of fibrillar collagen (collagen type I and III) taken from formalin-fixed paraffin embedded lung tissue sections from a healthy mouse lung (4F), a vehicle-treated mouse lung (4G) and a test-article treated mouse lung (4H; 500 mg/kg BID). Color scale is indicative of collagen fiber density (red = most dense; blue = least dense).
FIG. 4I is a graph showing the percent total collagen area in the second harmonic generation mouse lung images. […]

[2] = system: normal human bronchial epithelial cells; assay: LAP adhesion assay (xCELLigence cell index), bronchial epithelial cells; assay type: cell-based; conditions: normal bronchial epithelial cells (express αvβ6)
Text: Two latency associated peptide (LAP) adhesion binding assays were devised using primary human lung cells, including normal (healthy) human bronchial epithelial cells and human lung fibroblasts (healthy and IPF).
Human bronchial epithelial cells are known to express αvβ6 integrin in culture.

COCCN(CCCCc1ccc2c(n1)NCCC2)CC[C@H](Nc1ncnc2ccccc12)C(=O)O [Compound 5, (S)-4-((2-methoxyethyl)(4-(5,6,7,8-tetrahydro-1,8-naphthyridin-2-yl)butyl)amino)-2-(quinazolin-4-ylamino)butanoic acid]
accumulated new collagen (% of lung collagen containing 2H-labeled hydroxyproline) ([1]; 1x and 5x dose PO BID 14 days): dose-dependent reduction
percent total collagen area in second harmonic generation lung images ([1]; 1x, 2.5x, 5x dose): substantial, statistically significant dose-dependent reduction
total pulmonary collagen (µg of hydroxyproline) ([1]; 1x, 2.5x, 5x dose PO BID 14 days): reduction in total pulmonary collagen
inhibition of cell adhesion to LAP [2]: substantially inhibited
